In US6730064B2, “Coated implantable medical device” (Cook Incorporated, priority 1998, dated 2004):

Experiments:
[1] = system: stented coronary arteries (in-stent restenosis); assay: One-month pig studies, quantitative coronary angiography (QCA); format: in vivo, Juvenile domestic swine; conditions: 1 month
Protocol: (§1) No other antiplatelet agents or anticoagulants were given.
(§2) Angiograms were recorded immediately before stent implantation, immediately after stent implantation and at 1 month follow-up. Immediately after the follow-up angiography, the hearts were excised and the coronary vasculature was perfusion fixed at physiologic pressure. The vessels were then processed to obtain histologic cross sections for morphometric analysis from proximal, middle and distal locations within each stent.
(§3) Computer assisted quantitative coronary angiography (QCA) analysis and histomorphometric analysis were performed on each stented artery. Qualitative histopathologic analysis was also performed, with each artery evaluated for both injury and inflammation.

[2] = system: porcine coronary in-stent restenosis model; assay: Slow-release paclitaxel coated GR II stents versus control; format: in vivo; conditions: 175-200 μg total drug
From the text: Furthermore, the coating itself appears biocompatible.

[3] = system: pigs with stented coronary arteries; conditions: in vivo
From the text: (§4) Juvenile domestic swine received one stent in the left anterior descending coronary artery (LAD) and/or one stent in the left circumflex (LCX) or right coronary arteries (RCA). To account for differences in vessel diameter prior to stenting, the deployment pressure for each stent was adjusted to achieve a balloon-to-artery ratio (BAR) of approximately 1.1-1.2. The pigs were followed for 1 month after stent implantation.
(§5) The pigs were fed a standard high fiber diet without lipid or cholesterol supplementation. For antiplatelet effect, each pig was administered approximately 325 mg aspirin and 250 mg ticlopidine daily, starting at least 2 days prior to surgery and continuing until the end of the study. Each pig was also administered approximately 10,000 units heparin during stent implantation and approximately 10,000 units heparin during follow-up angiography. No other antiplatelet agents or anticoagulants were given.

in-stent restenosis = assay: Fast-release low-dose and high-dose paclitaxel-coated stents versus control; format: in vivo, porcine
[4] = system: pigs with stented coronary arteries; assay: One-month pig studies, premature deaths and safety
From the text: as §4, §5

[5] = system: stented coronary arteries (in-stent restenosis); assay: One-month pig studies, histomorphometric analysis; format: in vivo, Juvenile domestic swine; conditions: 1-month F/U
Protocol: as §1, §2, §3

[6] = system: stented coronary arteries; assay: One-month pig studies, qualitative histopathologic analysis; format: in vivo, Juvenile domestic swine
Protocol: as §1, §2, §3

[7] = In-vitro flow system (10 ml/min, 1% BSA in PBS): antibody remaining on stent; format: physicochemical; conditions: after approximately 10 days perfusion
From the text: In still another aspect of the present invention as depicted in FIG. 11, coating layer 16 can be considered an adsorbent layer and/or an absorbent layer in which a bioactive material is attached thereto. In one particular example, device 10 is a stainless steel GR II™ stent in which the stainless steel base material 14 of structure 12 is coated with a polymer and, in particular, parylene. This adsorbent polymer layer 16 of parylene is approximately 230,000 Å thick. Bioactive material layer 18 of the antiplatelet GP IIb/IIIa antibody (AZ1) was passively loaded on adsorbent polymer layer 16. The polymer coated stainless steel stents were immersed for approximately 24 hours in a buffered aqueous solution of AZ1 antibody (1 mg/ml, pH=7.2) at 37° C. AZ1 is a monoclonal anti-rabbit platelet glycoprotein (GP) IIb/IIIa antibody.
In another example, c7E3 Fab as bioactive material layer 18 is attached to polymer coating layer 16. Bioactive material c7E3 Fab is a chimeric monoclonal antibody that acts upon the […] integrin on platelets to inhibit their aggregation. This antibody or receptor blocker can be used in humans intravenously to prevent thrombosis during coronary angioplasty. This receptor blocker is also known as ReoPro™ available from Eli Lilly, Indianapolis, Ind. […]

[8] = 400 μg paclitaxel+parylene N stents

CC(=O)O[C@H]1C(=O)[C@@]2(C)[C@H]([C@H](OC(=O)c3ccccc3)[C@]3(O)C[C@H](OC(=O)[C@H](O)[C@@H](NC(=O)c4ccccc4)c4ccccc4)C(C)=C1C3(C)C)[C@]1(OC(C)=O)CO[C@@H]1C[C@@H]2O [Paclitaxel, paclitaxel]
Late Loss ([1]; 5 μg paclitaxel on stent): 17.9 ± 20.3%
MLD at F/U ([1]; 5 μg paclitaxel on stent): 1.74 ± 0.45 mm
Mean Diameter at Follow-up ([1]; 5 μg paclitaxel on stent): 2.23 ± 0.51 mm
Late Loss ([1]; 15 μg paclitaxel on stent): 20.1 ± 19.9%
MLD at F/U ([1]; 15 μg paclitaxel on stent): 1.90 ± 0.38 mm
Mean Diameter at Follow-up ([1]; 15 μg paclitaxel on stent): 2.15 ± 0.43 mm
Late Loss ([1]; 35 μg paclitaxel on stent): 2.6 ± 7.5%
MLD at F/U ([1]; 35 μg paclitaxel on stent): 2.42 ± 0.25 mm
Mean Diameter at Follow-up ([1]; 35 μg paclitaxel on stent): 2.62 ± 0.21 mm
Late Loss ([1]; 85 μg paclitaxel on stent): 1.6 ± 8.1%
MLD at F/U ([1]; 85 μg paclitaxel on stent): 2.61 ± 0.15 mm
Mean Diameter at Follow-up ([1]; 85 μg paclitaxel on stent): 2.77 ± 0.22 mm
Late Loss ([1]; 400 μg paclitaxel + parylene N): 0.32 ± 7.1%
MLD at F/U ([1]; 400 μg paclitaxel + parylene N): 2.75 ± 0.17 mm
Mean Diameter at Follow-up ([1]; 400 μg paclitaxel + parylene N): 2.92 ± 0.22 mm
in-stent restenosis compared with controls [2]: significantly reduced
safety problems related to the stents [3]: no safety problems
Area Stenosis (in-stent restenosis; Low-Dose): 19.3 ± 9.45 %
in-stent restenosis compared to control stents (in-stent restenosis; high-dose): significantly reduced
in-stent restenosis compared to control stents (in-stent restenosis; low-dose): significantly reduced
Premature Deaths ([4]; 5 μg paclitaxel on stent): One pig (stents in LAD &
Premature Deaths ([4]; 5 μg paclitaxel on stent, listed as paclitaxel): One pig
Premature Deaths ([4]; 15 μg paclitaxel on stent): One pig (stents in LAD &
Premature Deaths ([4]; 15 μg paclitaxel on stent, listed as paclitaxel): One pig
Premature Deaths ([4]; 35 μg paclitaxel on stent): None
Premature Deaths ([4]; 85 μg paclitaxel on stent): None
Premature Deaths ([4]; 400 μg paclitaxel + parylene N): None
Lumen Diameter ([5]; 5 μg paclitaxel on stent): 1.77 ± 0.34 mm
Neointimal Thickness ([5]; 5 μg paclitaxel on stent): 0.31 ± 0.20 mm
Outer Diameter ([5]; 5 μg paclitaxel on stent): 2.73 ± 0.28 mm
Wall Thickness ([5]; 5 μg paclitaxel on stent): 0.48 ± 0.23 mm
Lumen Diameter ([5]; 15 μg paclitaxel on stent): 1.87 ± 0.37 mm
Neointimal Thickness ([5]; 15 μg paclitaxel on stent): 0.29 ± 0.19 mm
Outer Diameter ([5]; 15 μg paclitaxel on stent): 2.41 ± 0.90 mm
Wall Thickness ([5]; 15 μg paclitaxel on stent): 0.46 ± 0.22 mm
Lumen Diameter ([5]; 35 μg paclitaxel on stent): 2.12 ± 0.52 mm
Neointimal Thickness ([5]; 35 μg paclitaxel on stent): 0.19 ± 0.16 mm
Outer Diameter ([5]; 35 μg paclitaxel on stent): 2.78 ± 0.32 mm
Wall Thickness ([5]; 35 μg paclitaxel on stent): 0.33 ± 0.17 mm
Lumen Diameter ([5]; 85 μg paclitaxel on stent): 2.40 ± 0.31 mm
Neointimal Thickness ([5]; 85 μg paclitaxel on stent): 0.15 ± 0.08 mm
Outer Diameter ([5]; 85 μg paclitaxel on stent): 2.96 ± 0.31 mm
Wall Thickness ([5]; 85 μg paclitaxel on stent): 0.28 ± 0.10 mm
Lumen Diameter ([5]; 400 μg paclitaxel + parylene N): 2.58 ± 0.19 mm
Neointimal Thickness ([5]; 400 μg paclitaxel + parylene N): 0.12 ± 0.06 mm
Outer Diameter ([5]; 400 μg paclitaxel + parylene N): 3.06 ± 0.17 mm
Wall Thickness ([5]; 400 μg paclitaxel + parylene N): 0.24 ± 0.07 mm
histologic sections with occasional small patches of luminal fibrin ([6]; 5 μg paclitaxel stents): none
histologic sections with vessel wall hypocellularity and hyalinization ([6]; 5 μg paclitaxel stents): approximately 28%
histologic sections with occasional small patches of luminal fibrin ([6]; 15 μg paclitaxel stents): none
histologic sections with vessel wall hypocellularity and hyalinization ([6]; 15 μg paclitaxel stents): approximately 67%
histologic sections with occasional small patches of luminal fibrin ([6]; 35 μg paclitaxel stents): approximately 50%
histologic sections with vessel wall hypocellularity and hyalinization ([6]; 35 μg paclitaxel stents): over 80%
histologic sections with occasional small patches of luminal fibrin ([6]; 85 μg paclitaxel stents): approximately 50%
histologic sections with vessel wall hypocellularity and hyalinization ([6]; 85 μg paclitaxel stents): over 80%
histologic sections with occasional small patches of luminal fibrin [6, 8]: approximately 50%
histologic sections with vessel wall hypocellularity and hyalinization [6, 8]: over 80%

c7E3 Fab: chimeric monoclonal antibody acting on platelet GP IIb/IIIa integrin to inhibit aggregation
loaded antibody remaining on the stent [7]: approximately half
